The target of one assay is Factor XIa (Homo sapiens, UniProt P03951). Briefly: Factor XIa inhibition assay (FLINT) utilizing a fluorophore-quencher pair peptide substrate 5Fam-[…]-K5Tamra. The conditions noted are these: kinetic (KIN) reads; values in nM; read-out: FXIa KIN Inh IC50. The format is biochemical. An outline of the steps:
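Compounds were tested as 11-point 3-fold dilutions from 100 nM (2% DMSO). They were preincubated 30 min with FXIa in 50 mM Tris pH 7.5, 5 mM CaCl2, then 15 μM fluorophore-quencher peptide was added. Cleavage was followed at 485/520 nm over 30 min, and IC50 was derived by 4-parameter logistic fit.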

For a further assay, the target named is human plasma kallikrein (Homo sapiens, UniProt P03952). Briefly: Kallikrein inhibition assay (FLINT) utilizing a quenched AMC peptide substrate Z-Gly-Pro-Arg-AMC. The format is biochemical. The conditions noted are these: kinetic (KIN) reads, read-out: Kallikrein KIN Inh IC50. A digest of the protocol:
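IC50 from a 4-parameter logistic fit of % inhibition from 11 concentrations (3-fold, top 1 μM, 2% DMSO). Compound pre-incubated 30 min with 2 nM enzyme in Tris pH 7.5, NaCl, CaCl2, BSA, CHAPS, then 50 μM AMC peptide substrate added. Fluorescence (340/440 nm) followed every 5 min for 30 min at room temperature.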

Like-named read-outs stand apart in the source and are kept apart here.

Sequence of human plasma kallikrein (P03952 391-638 limits assumed): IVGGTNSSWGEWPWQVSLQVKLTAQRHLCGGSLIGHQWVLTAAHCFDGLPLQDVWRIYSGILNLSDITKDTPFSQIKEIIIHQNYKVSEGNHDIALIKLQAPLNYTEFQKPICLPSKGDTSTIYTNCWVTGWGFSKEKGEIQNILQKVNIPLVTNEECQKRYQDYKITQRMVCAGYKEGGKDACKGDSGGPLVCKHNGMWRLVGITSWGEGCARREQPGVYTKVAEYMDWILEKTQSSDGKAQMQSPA
Sequence of human plasma kallikrein (P03952 20-390 partner limits assumed): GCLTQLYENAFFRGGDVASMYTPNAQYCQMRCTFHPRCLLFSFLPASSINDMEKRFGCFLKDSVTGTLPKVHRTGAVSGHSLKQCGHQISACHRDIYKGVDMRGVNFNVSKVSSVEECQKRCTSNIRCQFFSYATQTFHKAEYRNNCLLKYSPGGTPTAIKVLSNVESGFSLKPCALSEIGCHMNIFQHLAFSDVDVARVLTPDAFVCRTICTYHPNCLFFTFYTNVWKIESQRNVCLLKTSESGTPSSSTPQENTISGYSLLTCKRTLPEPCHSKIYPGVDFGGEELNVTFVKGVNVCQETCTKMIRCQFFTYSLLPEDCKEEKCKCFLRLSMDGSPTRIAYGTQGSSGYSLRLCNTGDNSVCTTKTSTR
Sequence of Factor XIa (P03951 388-625 limits assumed): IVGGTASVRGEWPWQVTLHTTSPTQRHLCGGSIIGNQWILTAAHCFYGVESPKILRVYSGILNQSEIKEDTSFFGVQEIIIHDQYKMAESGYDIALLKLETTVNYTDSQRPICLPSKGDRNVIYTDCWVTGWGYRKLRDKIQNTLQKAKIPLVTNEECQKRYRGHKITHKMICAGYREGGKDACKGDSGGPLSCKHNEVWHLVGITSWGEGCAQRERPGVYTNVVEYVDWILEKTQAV
Sequence of Factor XIa (P03951 19-387 partner limits assumed): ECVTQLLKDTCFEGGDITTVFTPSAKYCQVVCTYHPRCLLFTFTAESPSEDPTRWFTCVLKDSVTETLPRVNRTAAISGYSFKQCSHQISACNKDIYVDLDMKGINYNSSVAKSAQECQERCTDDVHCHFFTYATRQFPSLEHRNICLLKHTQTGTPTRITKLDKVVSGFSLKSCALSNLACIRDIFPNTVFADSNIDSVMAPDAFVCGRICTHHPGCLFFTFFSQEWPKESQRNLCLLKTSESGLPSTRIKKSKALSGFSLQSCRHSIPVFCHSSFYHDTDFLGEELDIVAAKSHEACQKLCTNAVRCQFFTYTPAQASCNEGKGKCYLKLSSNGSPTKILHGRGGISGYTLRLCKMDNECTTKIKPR

As to `C[C@H]1C[C@@H](c2ncc(-c3c(C#N)cnn3C)[nH]2)n2c1cc(-c1c(-n3cnnn3)ccc(Cl)c1F)cc2=O` [Example 14, 5-(2-((1S,3S)-7-(3-Chloro-2-fluoro-6-(1H-tetrazol-1-yl)phenyl)-1-methyl-5-oxo-1,2,3,5-tetrahydroindolizin-3-yl)-1H-imidazol-5-yl)-1-methyl-1H-pyrazole-4-carbonitrile], the values for the IC50 on Factor XIa and on human plasma kallikrein (unit μM) were 189 nM and 4.7 µM, respectively.
Taken in the same sequence, the figures for `C[C@H]1CC(c2ncc(-c3cnnn3C)[nH]2)n2c1nc(-c1c(-n3cnnn3)ccc(Cl)c1F)cc2=O` (stereo in doubt) [Example 136, (6*S,8*S)-2-(3-Chloro-2-fluoro-6-(1H-tetrazol-1-yl)phenyl)-8-methyl-6-(5-(1-methyl-1H-1,2,3-triazol-5-yl)-1H-imidazol-2-yl)-7,8-dihydropyrrolo[1,2-a]pyrimidin-4(6H)-one] were 566 nM and more than 10 µM.
With `C[C@@H]1C[C@H](c2ncc(-c3ccc4nccn4c3)[nH]2)n2c1cc(-c1c(-n3cnnn3)ccc(Cl)c1F)cc2=O` (stereo in doubt) [Example 49, (1R*,3R*)-7-(3-Chloro-2-fluoro-6-(1H-tetrazol-1-yl)phenyl)-3-(5-(imidazo[1,2-a]pyridin-6-yl)-1H-imidazol-2-yl)-1-methyl-2,3-dihydroindolizin-5(1H)-one], the IC50 is 24.2 nM at Factor XIa and 0.0443 µM at human plasma kallikrein (values in nM).
The matching figures for `Nc1nsc2cc(-c3cnc([C@@H]4CC5(CC5)c5nc(-c6c(-n7cnnn7)ccc(Cl)c6F)cc(=O)n54)[nH]3)ccc12` [Example 81, (S)-6′-(5-(3-Aminobenzo[d]isothiazol-6-yl)-1H-imidazol-2-yl)-2′-(3-chloro-2-fluoro-6-(1H-tetrazol-1-yl)phenyl)-6′,7′-dihydro-4′H-spiro[cyclopropane-1,8′-pyrrolo[1,2-a]pyrimidin]-4′-one]: 0.6 nM and 0.0009 µM.
As for `C[C@H]1C[C@@H](c2nc(-c3ncc(N)nc3Cl)c[nH]2)n2c1nc(-c1c(-n3cnnn3)ccc(Cl)c1F)cc2=O` [Example 93, (6S,8S)-6-(4-(5-Amino-3-chloropyrazin-2-yl)-1H-imidazol-2-yl)-2-(3-chloro-2-fluoro-6-(1H-tetrazol-1-yl)phenyl)-8-methyl-7,8-dihydropyrrolo[1,2-a]pyrimidin-4(6H)-one], the IC50 was determined as 0.5 nM at Factor XIa and 0.0208 µM on human plasma kallikrein (values in nM).
Take `COc1cc(-c2cnc([C@H]3C[C@@H](C)c4nc(-c5c(-n6cnnn6)ccc(Cl)c5F)cc(=O)n43)[nH]2)ccn1` (stereo in doubt) [Example 99, (6*R,8*R)-2-(3-Chloro-2-fluoro-6-(1H-tetrazol-1-yl)phenyl)-6-(5-(2-methoxypyridin-4-yl)-1H-imidazol-2-yl)-8-methyl-7,8-dihydropyrrolo[1,2-a]pyrimidin-4(6H)-one]: the IC50 on Factor XIa turned out to be 8 nM; at human plasma kallikrein (values in nM) it was 0.0238 µM.
For the molecule `C[C@H]1C[C@@H](c2ncc(-c3cnnn3C)[nH]2)n2c1cc(-c1c(-n3cnnn3)ccc(Cl)c1F)cc2=O` [Example 28, (1S,3S)-7-(3-Chloro-2-fluoro-6-(1H-tetrazol-1-yl)phenyl)-1-methyl-3-(5-(1-methyl-1H-1,2,3-triazol-5-yl)-1H-Imidazol-2-yl)-2,3-dihydroindolizin-5(1H)-one], the 50% inhibitory concentration (IC50) stood at 311 nM at Factor XIa and 6.4 µM at human plasma kallikrein (unit μM).
`C[C@H]1C[C@@H](c2ncc(-c3ccc(N)nc3Cl)[nH]2)n2c1nc(-c1c(-n3cnnn3)ccc(Cl)c1F)cc2=O` (single isomer, unassigned) [Example 142]: the values for the IC50 on Factor XIa and at human plasma kallikrein (values in nM) were 0.2 nM and 0.0183 µM, respectively.
Taken in the same sequence, the figures for `C[C@@H]1C[C@H](c2ncc(-c3ccnc(CN)c3)[nH]2)n2c1cc(-c1c(-n3cnnn3)ccc(Cl)c1F)cc2=O` (relative stereo) [Example 38, (1*R,3*R)-3-(5-(2-(Aminomethyl)pyridin-4-yl)-1H-imidazol-2-yl)-7-(3-chloro-2-fluoro-6-(1H-tetrazol-1-yl)phenyl)-1-methyl-2,3-dihydroindolizin-5(1H)-one] were 42.9 nM and 0.539 µM.

Values taken from patent US20230097157A1, “Bicyclic Pyridin-2-one and pyrimidin-4-one Derivatives Useful As a Factor XIa Inhibitors” (Janssen Pharmaceutica NV, priority 2021, published 2023).
